Measured values taken from patent publication US20250205194A1, “COMPOSITION CONTAINING L-ASCORBIC ACID DL-a-TOCOPHEROL PHOSPHORIC ACID DIESTER ALKALI METAL SALT” (SUNSTAR INC., priority 2022, published 2025).

system: oral cavity-derived epithelial cell line (Ca9-22 cells); test: Cytotoxicity evaluation test (WST-1); format: cell-based; details: surfactant final concentration 1%, 10 minutes at room temperature, FIGS. 6 and 7
Protocol: An oral cavity-derived epithelial cell line (Ca9-22 cells) was cultured in a 96-well plate to confluency.
Evaluation solutions were prepared using PBS containing 0.5% DMSO as a solvent so that the final concentration of each surfactant was 1%. The surfactants used were polyoxyethylene (9) lauryl ether, polyoxyethylene (20) cetyl ether, polyoxyethylene (20) stearyl ether, polyoxyethylene (10) octylphenyl ether, polyoxyethylene glycol monolaurate, sorbeth-60 tetraoleate, diethyl sebacate, and polyoxyethylene (10) hydrogenated castor oil.
100 μl of each prepared evaluation solution was individually added to the cultured Ca9-22 cells and allowed to stand for 10 minutes at room temperature. After 10 minutes, washing was performed three times with 200 μl of PBS, a WST-1 reagent (Takara Bio Inc.) was added, and a reaction was allowed to proceed for 30 minutes. After the reaction, the absorbance at 450 nm and 600 nm was measured, and the absorbance at 600 nm was subtracted from the absorbance at 450 nm. The cell viability was calculated from the value calculated by the subtraction, based on the value obtained when only the solvent was added for the treatment taken as 100%. FIGS. 6 and 7 show the results.

Compound	cytotoxicity in oral cavity-derived cells (cell viability)
CCOC(=O)CCCCCCCCC(=O)OCC [diethyl sebacate]	cytotoxicity was not caused
polyoxyethylene glycol monolaurate	cytotoxicity was caused
polyoxyethylene (10) hydrogenated castor oil	cytotoxicity was not caused
polyoxyethylene (20) cetyl ether	cytotoxicity was caused
polyoxyethylene (9) lauryl ether	cytotoxicity was caused
sorbeth-60 tetraoleate	cytotoxicity was not caused
polyoxyethylene (20) stearyl ether	cytotoxicity was caused
polyoxyethylene (10) octylphenyl ether	cytotoxicity was caused

molecular target: T1, MMP-8 (neutrophil collagenase) (Homo sapiens, UniProt P22894); test: MMP activity measurement test, MMP-8 fluorimetric drug discovery kit; format: biochemical; details: reaction with enzyme 37° C. 60 minutes, substrate 20 minutes; FIG. 4
T1 construct: purchased Enzo Life Sciences, Inc. BML-AK415-0001
Protocol: (§1) Evaluation material solutions were prepared by individually adding each evaluation material at the respective concentrations shown in FIGS. 4 and 5 to a solvent in which 5% DMSO was added to the buffer included in each kit below. The evaluation materials used are EPC-K (L-ascorbic acid dl-α-tocopherol phosphoric acid diester potassium salt), VC (ascorbic acid), VEA (tocopherol acetate), and VEN (tocopherol nicotinate).
(§2) MMP-8 (neutrophil collagenase) activity was evaluated using an MMP-8 fluorimetric drug discovery kit (Enzo Life Sciences, Inc., BML-AK415-0001), and MMP-1 (fibroblast collagenase) activity was evaluated using an MMP-1 fluorimetric drug discovery kit (Enzo Life Sciences, Inc., BML-AK405-0001), in the following manner. […]
(§3) The fluorescent substrate included in each kit was diluted 10-fold using the buffer, and added in an amount of 10 μl to each solution after the reaction for 60 minutes. After the addition, a reaction was allowed to proceed at 37° C. for 20 minutes for MMP-8 or at 37° C. for 60 minutes for MMP-1, and the fluorescence intensity (excitation light: 328 nm; emission light: 420 nm) was measured. […] The concentration of each evaluation material in FIGS. 4 and 5 is the concentration at the time of preparing the evaluation material, and the final concentration (concentration at the time of measuring fluorescence intensity) is 1/5 of this concentration value.

T1 sequence (P22894 100-262 limits assumed): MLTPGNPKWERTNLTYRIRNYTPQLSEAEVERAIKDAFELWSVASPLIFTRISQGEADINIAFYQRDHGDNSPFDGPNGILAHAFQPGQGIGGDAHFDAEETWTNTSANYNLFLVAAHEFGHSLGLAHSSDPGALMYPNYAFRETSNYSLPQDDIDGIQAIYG

Compound	inhibition of MMP-8 activity
Cc1c(C)c2c(c(C)c1OP(=O)([O-])OC1=C(O)C(C(O)CO)OC1=O)CCC(C)(CCCC(C)CCCC(C)CCCC(C)C)O2.[K+] (racemic) [EPC-K, L-ascorbic acid dl-α-tocopherol phosphoric acid diester potassium salt]	inhibited MMP activity (MMP-8 and MMP-1) in a concentration-dependent manner

molecular target: T2, MMP-1 (fibroblast collagenase) (Homo sapiens, UniProt P03956); test: MMP activity measurement test, MMP-1 fluorimetric drug discovery kit; format: biochemical; details: reaction with enzyme 37° C. 60 minutes, substrate 60 minutes; FIG. 5
T2 construct: purchased Enzo Life Sciences, Inc. BML-AK405-0001
T2 sequence (P03956 100-269 limits assumed): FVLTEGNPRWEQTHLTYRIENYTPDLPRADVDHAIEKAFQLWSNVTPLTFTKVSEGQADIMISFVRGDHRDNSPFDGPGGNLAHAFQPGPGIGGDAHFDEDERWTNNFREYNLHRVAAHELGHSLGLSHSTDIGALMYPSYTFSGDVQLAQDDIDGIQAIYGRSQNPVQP
Protocol: as §1, §2, §3

Compound	inhibition of MMP-1 activity
Cc1c(C)c2c(c(C)c1OP(=O)([O-])OC1=C(O)C(C(O)CO)OC1=O)CCC(C)(CCCC(C)CCCC(C)CCCC(C)C)O2.[K+] (racemic) [EPC-K, L-ascorbic acid dl-α-tocopherol phosphoric acid diester potassium salt]	inhibited MMP activity (MMP-8 and MMP-1) in a concentration-dependent manner
